Values quoted from earlier work as cited in patent EP3251687A1, “BIOACTIVE PEPTIDES FOR BLOOD GLUCOSE CONTROL” (Centrum Innowacji Edoradca Sp. z o.o. Spolka Komandytowa, priority 2016, dated 2017).

Test system: carboxypeptidases A, B

For enterostatin, the “resistance to digestion by carboxypeptidases A, B” value is given as “resistant to digestion by carboxypeptidases A, B”.
